Target: T1, ΔF508-CFTR (Homo sapiens, UniProt P13569, DEL508-508)
T1 construct: host or cells: CFBE41o-, doxycycline-inducible
Assay: CFTR cell surface levels using HRP-tagged ΔF508-CFTR expressing CFBE cells, intrinsic corrector capacity
Assay type: cell-based
Design: % Activation: concentration or dose not given beside the values
Conditions: HRP-tagged ΔF508-CFTR expressing CFBE41o- cells, compound alone (intrinsic corrector capacity), 20 hours at 33° C.; for EC50: read-out: EC50
From the text: Measuring CFTR Cell Surface Levels Using HRP-Tagged ΔF508-CFTR Expressing CFBE Cells
The HRP-tagged ΔF508-CFTR cell assay measures the expression of CFTR-ΔF508 at the plasma membrane. CFTR-ΔF508 has a folding defect leading to absence of protein at the plasma membrane. This assay is used to evaluate the capacity of compounds to increase the expression of CFTR-ΔF508 at the plasma membrane. The CFTR-ΔF508 is tagged with HRP (horse radish peroxidase enzyme) within the ECL4 (Extracellular loop 4) of CFTR (Phuan, P.-W. et al. Synergy-based small-molecule screen using a human lung epithelial cell line yields ΔF508-CFTR correctors that augment VX-809 maximal efficacy. Mol. Pharmacol. 86, 42-51 (2014)). When HRP-tagged ΔF508-CFTR is present at the plasma membrane, the HRP enzyme activity can be measured. The amount of CFTR-ΔF508 that can be rescued to the plasma membrane is correlated with the amount of functional enzyme that can be measured.
There are several ways to measure the capacity of compounds to rescue CFTR-ΔF508 to the plasma membrane; either compounds are evaluated on their own and the impact on plasma membrane levels is measured or compounds are evaluated in combination with a co-corrector, i.e. a compound that rescues CFTR-ΔF508 to the plasma membrane but rescue can be enhanced by addition of compounds due to a complementary mode of action.
Activity of Compounds for their Intrinsic Corrector Capacity:
For this purpose doxycycline-inducible ΔF508-CFTR-HRP expressing CFBE4lo− cells (obtained from Gergely Lukacs, McGill University) were maintained in MEM (Gibco; 31095) supplemented with 10% fetal bovine serum (Hyclone; SV30160.03) under puromycin (3 μg/mL) and G418 selection (0.2 mg/mL). For compound testing, cells were seeded at 4000 cells/well in white 384-well plates (Greiner; 781080) in 50 μL medium containing 0.5 μg/mL doxycycline and incubated for 68 hours at 37° C., 5% CO2. On day four, […] compounds diluted in PBS were added to the plates at a final DMSO concentration of 0.1%. All compound plates contained negative controls (DMSO) and positive controls ([…] corrector, 3-[(2R,4R)-4-({[1-(2,2-difluoro-1,3-benzodioxol-5-yl)cyclopropyl]carbonyl}amino)-7-methoxy-3,4-dihydro-2H-chromen-2-yl]benzoic acid). Cell plates were incubated at 33° C., 5% CO2 for 20 hours. On day five, the cells were washed five times with phosphate-buffered saline, and HRP activity was assayed by the addition of 50 μL/well of HRP substrate (SuperSignal™ West Pico Chemiluminescent Substrate, Thermo Scientific; 34080). After incubation for 15 minutes in the dark, chemiluminescence was measured using a plate reader (EnVision®, Perkin Elmer). Raw data were normalized to percentage activity values using the equation: 100×(Sample−Negative control)/(Positive control−Negative Control).

T1 sequence (P13569 with tags, fused parts or gaps DEL508-508): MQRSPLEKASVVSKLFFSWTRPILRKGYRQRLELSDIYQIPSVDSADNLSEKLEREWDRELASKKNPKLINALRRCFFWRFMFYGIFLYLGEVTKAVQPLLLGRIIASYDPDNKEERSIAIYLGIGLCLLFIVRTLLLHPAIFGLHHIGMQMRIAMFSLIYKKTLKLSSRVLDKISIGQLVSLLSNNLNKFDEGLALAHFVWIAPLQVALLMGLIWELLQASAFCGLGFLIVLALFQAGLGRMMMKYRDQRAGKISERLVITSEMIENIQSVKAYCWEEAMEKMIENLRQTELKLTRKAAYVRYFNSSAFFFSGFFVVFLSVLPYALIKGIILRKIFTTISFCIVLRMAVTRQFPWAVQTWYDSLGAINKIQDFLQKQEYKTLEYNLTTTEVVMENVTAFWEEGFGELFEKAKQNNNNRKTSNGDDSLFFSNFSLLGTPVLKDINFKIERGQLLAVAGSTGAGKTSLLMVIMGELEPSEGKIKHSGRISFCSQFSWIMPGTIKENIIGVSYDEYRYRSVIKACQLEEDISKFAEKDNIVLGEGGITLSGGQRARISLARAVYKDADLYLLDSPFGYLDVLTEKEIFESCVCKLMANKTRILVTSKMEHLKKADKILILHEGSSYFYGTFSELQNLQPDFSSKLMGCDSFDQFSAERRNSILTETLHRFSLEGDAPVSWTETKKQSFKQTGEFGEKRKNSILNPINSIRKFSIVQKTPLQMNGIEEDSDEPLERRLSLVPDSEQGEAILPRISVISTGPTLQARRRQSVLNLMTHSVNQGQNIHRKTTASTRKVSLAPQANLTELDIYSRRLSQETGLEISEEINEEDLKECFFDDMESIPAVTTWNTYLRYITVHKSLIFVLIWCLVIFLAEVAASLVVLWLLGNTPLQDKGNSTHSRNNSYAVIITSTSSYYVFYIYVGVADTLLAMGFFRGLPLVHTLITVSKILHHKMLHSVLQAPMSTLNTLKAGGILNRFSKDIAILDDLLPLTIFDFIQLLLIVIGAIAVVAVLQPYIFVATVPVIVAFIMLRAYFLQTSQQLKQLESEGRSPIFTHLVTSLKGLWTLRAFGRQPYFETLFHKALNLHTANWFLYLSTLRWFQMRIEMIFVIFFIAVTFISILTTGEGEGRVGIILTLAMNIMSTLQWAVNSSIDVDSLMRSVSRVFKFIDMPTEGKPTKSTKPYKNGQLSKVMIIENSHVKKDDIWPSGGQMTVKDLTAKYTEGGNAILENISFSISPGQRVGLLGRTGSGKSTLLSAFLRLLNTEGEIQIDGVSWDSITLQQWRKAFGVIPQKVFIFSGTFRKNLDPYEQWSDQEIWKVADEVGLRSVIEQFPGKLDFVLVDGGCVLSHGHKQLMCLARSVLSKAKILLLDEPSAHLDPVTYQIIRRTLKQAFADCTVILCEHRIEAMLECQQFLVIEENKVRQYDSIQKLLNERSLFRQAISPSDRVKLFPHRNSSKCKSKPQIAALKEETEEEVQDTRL

Row | SMILES | % Activation | EC50
1 | CCOC(=O)N1CCN(c2cc(C(=O)NS(=O)(=O)CCOC)nc3c2c(C2CCC2)nn3-c2ccc(F)cc2)CC1 [Compound 677, ethyl 4-{3-cyclobutyl-1-(4-fluorophenyl)-6-[(2-methoxyethanesulfonyl)carbamoyl]-1H-pyrazolo[3,4-b]pyridin-4-yl}piperazine-1-carboxylate] | 458.5% | 171 nM
2 | O=C(NS(=O)(=O)C1CC1)c1cc(OCC2CCOCC2)c2c(C3CCC3)nn(-c3ccccc3)c2n1 [Compound 333, 3-cyclobutyl-N-(cyclopropanesulfonyl)-4-[(oxan-4-yl)methoxy]-1-phenyl-1H-pyrazolo[3,4-b]pyridine-6-carboxamide] | 180% | 82.8 nM
3 | CN1CCC2(CC1)CCN(c1cc(C(=O)NS(=O)(=O)N3CCOCC3)nc3c1c(C1CCC1)nn3-c1ccc(F)cc1)CC2 [Compound 685, 3-cyclobutyl-1-(4-fluorophenyl)-4-(9-methyl-3,9-diazaspiro[5.5]undecan-3-yl)-N-(morpholine-4-sulfonyl)-1H-pyrazolo[3,4-b]pyridine-6-carboxamide] | 144.3% | 770 nM
4 | Cc1nn(-c2ccccc2)c2nc(C(=O)NS(=O)(=O)C(F)(F)F)cc(-c3ccc(N4CCOCC4)cc3)c12 [Compound 3, 3-methyl-4-[4-(morpholin-4-yl)phenyl]-1-phenyl-N-(trifluoromethanesulfonyl)-1H-pyrazolo[3,4-b]pyridine-6-carboxamide] | 53.08% | 3340 nM
5 | CCOC(=O)N1CCC(NS(=O)(=O)NC(=O)c2cc(N3CCC(COC)CC3)c3c(C4CCC4)nn(-c4ccc(F)cc4)c3n2)CC1 [Compound 673, ethyl 4-[({3-cyclobutyl-1-(4-fluorophenyl)-4-[4-(methoxymethyl)piperidin-1-yl]-1H-pyrazolo[3,4-b]pyridine-6-carbonyl}sulfamoyl)amino]piperidine-1-carboxylate] | 423.5% | 288 nM
6 | CC(C)COC(=O)N1CCN(c2cc(C(=O)NS(=O)(=O)N3CCOCC3)nc3c2c(C2CCC2)nn3-c2ccc(F)cc2)CC1 [Compound 682, 2-methylpropyl 4-{3-cyclobutyl-1-(4-fluorophenyl)-6-[(morpholine-4-sulfonyl)carbamoyl]-1H-pyrazolo[3,4-b]pyridin-4-yl}piperazine-1-carboxylate] | 260.8% | 297 nM
7 | COCC1CCN(c2cc(C(=O)NS(=O)(=O)NC3CCOCC3)nc3c2c(C2CCC2)nn3-c2ccc(F)cc2)CC1 [Compound 675, 3-cyclobutyl-1-(4-fluorophenyl)-4-[4-(methoxymethyl)piperidin-1-yl]-N-[(oxan-4-yl)sulfamoyl]-1H-pyrazolo[3,4-b]pyridine-6-carboxamide] | 398.1% | 316 nM
8 | COCCS(=O)(=O)NC(=O)c1cc(N2CCN(C(=O)OCC(C)C)CC2)c2c(C3CCC3)nn(-c3ccc(F)cc3)c2n1 [Compound 683, 2-methylpropyl 4-{3-cyclobutyl-1-(4-fluorophenyl)-6-[(2-methoxyethanesulfonyl)carbamoyl]-1H-pyrazolo[3,4-b]pyridin-4-yl}piperazine-1-carboxylate] | 354.9% | 253 nM
9 | COCC1CCN(c2cc(C(=O)NS(=O)(=O)N3CCC(N4CCOCC4)CC3)nc3c2c(C2CCC2)nn3-c2ccc(F)cc2)CC1 [Compound 676, 3-cyclobutyl-1-(4-fluorophenyl)-4-[4-(methoxymethyl)piperidin-1-yl]-N-[4-(morpholin-4-yl)piperidine-1-sulfonyl]-1H-pyrazolo[3,4-b]pyridine-6-carboxamide] | 251.1% | 251 nM
10 | COCC1CCN(c2cc(C(=O)NS(=O)(=O)NC3COC3)nc3c2c(C2CCC2)nn3-c2ccc(F)cc2)CC1 [Compound 674, 3-cyclobutyl-1-(4-fluorophenyl)-4-[4-(methoxymethyl)piperidin-1-yl]-N-[(oxetan-3-yl)sulfamoyl]-1H-pyrazolo[3,4-b]pyridine-6-carboxamide] | 389.5% | 156 nM
11 | CC(C)COC(=O)N1CCN(c2cc(C(=O)NS(C)(=O)=O)nc3c2c(C2CCC2)nn3-c2ccc(F)cc2)CC1 [Compound 681, 2-methylpropyl 4-{3-cyclobutyl-1-(4-fluorophenyl)-6-[(methanesulfonyl)carbamoyl]-1H-pyrazolo[3,4-b]pyridin-4-yl}piperazine-1-carboxylate] | 366.2% | 172 nM
12 | CCOC(=O)N1CCN(c2cc(C(=O)NS(C)(=O)=O)nc3c2c(C2CCC2)nn3-c2ccc(F)cc2)CC1 [Compound 679, ethyl 4-{3-cyclobutyl-1-(4-fluorophenyl)-6-[(methanesulfonyl)carbamoyl]-1H-pyrazolo[3,4-b]pyridin-4-yl}piperazine-1-carboxylate] | 476.9% | 132 nM
13 | CCOC(=O)N1CCN(c2cc(C(=O)NS(=O)(=O)NC)nc3c2c(C2CCC2)nn3-c2ccc(F)cc2)CC1 [Compound 680, ethyl 4-{3-cyclobutyl-1-(4-fluorophenyl)-6-[(methylsulfamoyl)carbamoyl]-1H-pyrazolo[3,4-b]pyridin-4-yl}piperazine-1-carboxylate] | 351.2% | 339 nM
14 | CCS(=O)(=O)NC(=O)c1cc(OCC2CCOCC2)c2c(C3CCC3)nn(-c3ccccc3)c2n1 [Compound 335, 3-cyclobutyl-N-(ethanesulfonyl)-4-[(oxan-4-yl)methoxy]-1-phenyl-1H-pyrazolo[3,4-b]pyridine-6-carboxamide] | 171.65% | 150 nM
15 | CCOC(=O)N1CCN(c2cc(C(=O)NS(=O)(=O)N3CCOCC3)nc3c2c(C2CCC2)nn3-c2ccc(F)cc2)CC1 [Compound 678, ethyl 4-{3-cyclobutyl-1-(4-fluorophenyl)-6-[(morpholine-4-sulfonyl)carbamoyl]-1H-pyrazolo[3,4-b]pyridin-4-yl}piperazine-1-carboxylate] | 345.1% | 221 nM
16 | CNS(=O)(=O)NC(=O)c1cc(N2CCN(C(=O)OCC(C)C)CC2)c2c(C3CCC3)nn(-c3ccc(F)cc3)c2n1 [Compound 684, 2-methylpropyl 4-{3-cyclobutyl-1-(4-fluorophenyl)-6-[(methylsulfamoyl)carbamoyl]-1H-pyrazolo[3,4-b]pyridin-4-yl}piperazine-1-carboxylate] | 356.9% | 115 nM
